Results taken from the supplement of paper PMC6045584.
± gives the standard deviation of the averaged measurements.

What was measured:
[1] = compound: CC(=O)c1c(C)c2cnc(Nc3ccc(N4CCNCC4)cn3)nc2n(C2CCCC2)c1=O; assay: surviving fraction relative to DMSO-only wells; higher = less growth inhibition; conditions: exposure time: 5 days
Outline: (§1)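 For each tumour cell line, log-phase cells were put into 384-well plates at 250–500 cells per well, then after 24 hours exposed continuously for five days to inhibitors at 0.5, 1, 5, 10, 50, 100, 500 and 1000 nM. Viability was assessed by CellTiter-Glo luminescence, with surviving fraction expressed relative to the median of DMSO-only wells. Lines were screened three times and retained only if replicate Pearson r exceeded 0.7 and median Z' exceeded 0.3.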

[2] = compound: O=C(O)C1(C(=O)O)CCC1.[NH2-].[NH2-].[Pt+2] [CARBOPLATIN]; assay: as above; conditions: exposure time: 5 days
Outline: as §1

Test System | surviving fraction ([1]; 0.5 nM) | surviving fraction ([1]; 1 nM) | surviving fraction ([1]; 5 nM) | surviving fraction ([1]; 10 nM) | surviving fraction ([1]; 50 nM) | surviving fraction ([1]; 100 nM) | surviving fraction ([1]; 500 nM) | surviving fraction ([1]; 1000 nM) | surviving fraction ([2]; 0.5 nM) | surviving fraction ([2]; 1 nM) | surviving fraction ([2]; 5 nM) | surviving fraction ([2]; 10 nM) | surviving fraction ([2]; 50 nM) | surviving fraction ([2]; 100 nM) | surviving fraction ([2]; 500 nM) | surviving fraction ([2]; 1000 nM)
93VU HEADNECK | 1.09 ± 0.1 | 1.04 ± 0.09 | 1.12 ± 0.049 | 1.07 ± 0.025 | 1.18 ± 0.12 | 1.14 ± 0.14 | 1.17 ± 0.038 | 1.19 ± 0.045 | 1.19 ± 0.012 | 1.13 ± 0.055 | 1.26 ± 0.097 | 1.24 ± 0.21 | 1.27 ± 0.091 | 1.28 ± 0.09 | 1.19 ± 0.027 | 1.21 ± 0.1
SG31 HEADNECK | 1.22 ± 0.17 | 1.08 ± 0.19 | 0.988 ± 0.21 | 0.911 ± 0.13 | 0.976 ± 0.071 | 0.977 ± 0.24 | 1.08 ± 0.13 | 1.14 ± 0.19 | 1.15 ± 0.14 | 1.21 ± 0.11 | 0.963 ± 0.12 | 1.12 ± 0.24 | 1.16 ± 0.1 | 1.06 ± 0.19 | 1.17 ± 0.083 | 1.21 ± 0.14
T47D BREAST | 1.05 ± 0.019 | 1.039 ± 0.0056 | 1.09 ± 0.022 | 1.06 ± 0.022 | 1.17 ± 0.014 | 1.08 ± 0.045 | 1.16 ± 0.042 | 1.11 ± 0.028 | 1.02 ± 0.049 | 1.04 ± 0.04 | 1.04 ± 0.083 | 1.01 ± 0.019 | 1.05 ± 0.013 | 1.05 ± 0.059 | 1.05 ± 0.028 | 1.03 ± 0.042
G292 BONE | 1 ± 0.068 | 0.976 ± 0.033 | 1 ± 0.024 | 1.02 ± 0.045 | 0.951 ± 0.062 | 0.929 ± 0.058 | 0.678 ± 0.025 | 0.678 ± 0.036 | 1.01 ± 0.039 | 1 ± 0.026 | 1.07 ± 0.044 | 1.05 ± 0.015 | 1.04 ± 0.064 | 1.04 ± 0.029 | 1.01 ± 0.021 | 1.03 ± 0.064
JURKAT HAEMATOPOIETIC AND LYMPHOID TISSUE | 1.09 ± 0.017 | 1.11 ± 0.021 | 1.0573 ± 0.00058 | 1.07 ± 0.033 | 1.03 ± 0.034 | 1.05 ± 0.013 | 0.847 ± 0.032 | 0.793 ± 0.018 | 1 ± 0.021 | 1.05 ± 0.043 | 1 ± 0.025 | 1.03 ± 0.012 | 1 ± 0.039 | 1.07 ± 0.031 | 1.01 ± 0.042 | 1.04 ± 0.019
SUM44 BREAST | 0.984 ± 0.044 | 1.01 ± 0.028 | 1.03 ± 0.062 | 0.956 ± 0.044 | 1.08 ± 0.1 | 1.05 ± 0.043 | 1.08 ± 0.068 | 1.086 ± 0.0082 | 1.15 ± 0.28 | 1.05 ± 0.14 | 1.16 ± 0.23 | 1.01 ± 0.2 | 1.28 ± 0.27 | 1.11 ± 0.1 | 1.2 ± 0.25 | 1.07 ± 0.079
PCI30 HEADNECK | 1.07 ± 0.085 | 1.04 ± 0.069 | 1.08 ± 0.1 | 1.07 ± 0.03 | 1.09 ± 0.062 | 0.931 ± 0.065 | 0.81 ± 0.06 | 0.781 ± 0.016 | 1.07 ± 0.036 | 1.09 ± 0.04 | 1.03 ± 0.021 | 1.11 ± 0.093 | 1.12 ± 0.067 | 1.08 ± 0.03 | 1.07 ± 0.079 | 1.07 ± 0.039
CME SYNOVIAL | 1.23 ± 0.18 | 1.27 ± 0.14 | 1.3 ± 0.18 | 1.18 ± 0.11 | 1.37 ± 0.062 | 1.23 ± 0.099 | 1.22 ± 0.066 | 1.09 ± 0.14 | 1.25 ± 0.15 | 1.36 ± 0.039 | 1.4 ± 0.047 | 1.48 ± 0.061 | 1.35 ± 0.16 | 1.42 ± 0.024 | 1.3 ± 0.14 | 1.39 ± 0.082
VP229 BREAST | 1.1 ± 0.1 | 1.05 ± 0.04 | 1.06 ± 0.034 | 0.852 ± 0.093 | 0.995 ± 0.055 | 0.978 ± 0.15 | 0.932 ± 0.037 | 0.776 ± 0.075 | 1.12 ± 0.14 | 1.05 ± 0.022 | 1.11 ± 0.12 | 0.961 ± 0.088 | 1.17 ± 0.21 | 1.05 ± 0.025 | 1.19 ± 0.096 | 0.956 ± 0.14
HMT3552 BREAST | 1.05 | 1.05 | 0.895 | 0.991 | 1.31 | 1.25 | 1.17 | 1.19 | 1.03 ± 0.063 | 0.996 ± 0.11 | 1.02 ± 0.032 | 1.03 ± 0.065 | 1.205 ± 0.0096 | 1.17 ± 0.059 | 1.25 ± 0.031 | 1.14 ± 0.088
CAL51 BREAST | 0.964 ± 0.089 | 0.962 ± 0.055 | 0.982 ± 0.037 | 0.94 ± 0.06 | 0.997 ± 0.029 | 1.07 ± 0.012 | 0.968 ± 0.052 | 0.908 ± 0.0048 | 0.974 ± 0.023 | 0.924 ± 0.08 | 0.98 ± 0.018 | 0.996 ± 0.017 | 1.03 ± 0.077 | 1.02 ± 0.022 | 1.09 ± 0.022 | 0.977 ± 0.024
MDAMB361 BREAST | 0.924 ± 0.046 | 0.861 ± 0.13 | 0.882 ± 0.09 | 0.825 ± 0.053 | 0.881 ± 0.083 | 0.86 ± 0.032 | 0.861 ± 0.23 | 0.866 ± 0.021 | 0.791 ± 0.041 | 0.821 ± 0.11 | 0.808 ± 0.043 | 0.762 ± 0.029 | 0.873 ± 0.062 | 0.754 ± 0.1 | 0.798 ± 0.046 | 0.785 ± 0.028
22RV1 PROSTATE | 1.05 ± 0.089 | 1.06 ± 0.032 | 1.04 ± 0.067 | 1.048 ± 0.0085 | 1.09 ± 0.053 | 1.11 ± 0.08 | 1.11 ± 0.071 | 1.03 ± 0.027 | 1.1 ± 0.072 | 0.999 ± 0.057 | 1.03 ± 0.051 | 1.02 ± 0.036 | 1.06 ± 0.093 | 1.04 ± 0.12 | 1.06 ± 0.068 | 1.13 ± 0.17
MDAMB453 BREAST | 1.05 ± 0.018 | 1.04 ± 0.043 | 1.07 ± 0.026 | 1.11 ± 0.044 | 1.15 ± 0.1 | 1.11 ± 0.061 | 1 ± 0.026 | 1.01 ± 0.071 | 1.07 ± 0.068 | 1.05 ± 0.07 | 1.15 ± 0.024 | 1.1 ± 0.076 | 1.07 ± 0.018 | 1.1 ± 0.069 | 1.01 ± 0.02 | 0.993 ± 0.011
C33A CERVIX | 0.978 ± 0.065 | 1.05 ± 0.066 | 1.14 ± 0.13 | 1.08 ± 0.067 | 1.15 ± 0.13 | 1.2 ± 0.11 | 1.01 ± 0.082 | 1.16 ± 0.12 | 1.14 ± 0.063 | 1.14 ± 0.085 | 1.19 ± 0.082 | 1.43 ± 0.17 | 1.21 ± 0.066 | 1.43 ± 0.13 | 1.15 ± 0.051 | 1.31 ± 0.024
LNCAP PROSTATE | 0.953 ± 0.0097 | 0.975 ± 0.087 | 0.854 ± 0.13 | 0.857 ± 0.11 | 0.952 ± 0.15 | 1.1 ± 0.13 | 0.961 ± 0.079 | 0.945 ± 0.16 | 1.02 ± 0.043 | 0.919 ± 0.079 | 0.981 ± 0.023 | 1.03 ± 0.086 | 1.09 ± 0.031 | 1.04 ± 0.046 | 1 ± 0.18 | 0.977 ± 0.077
SCC90 HEADNECK | 1.092 ± 0.0083 | 1.1 ± 0.11 | 1.12 ± 0.1 | 1.15 ± 0.025 | 1.06 ± 0.042 | 1.19 ± 0.14 | 1.12 ± 0.056 | 1.13 ± 0.13 | 1.02 ± 0.023 | 1.04 ± 0.034 | 1.12 ± 0.18 | 1.11 ± 0.034 | 1.2 ± 0.07 | 1.15 ± 0.012 | 1.14 ± 0.098 | 1.16 ± 0.12
